# PubChem BioAssay AID248 (DTP/NCI, 2004)
# Inconclusive results and toxic doses are left out.
# System: L1210 leukemia ip in BDF1 mice, survival T/C
# Experiment: NCI In Vivo Anticancer Drug Screen. Data for tumor model L1210 Leukemia (intraperitoneal) in B6D2F1 (BDF1) mice
# Details: endpoint: mean survival time, higher = longer survival
# In short: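 Tumor was transplanted into mice, which were then dosed with test compound or vehicle alone. Survival was recorded for each group, and the treated figure was expressed relative to the control figure.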
# [1] = dose: 100.0 mg/kg/injection, schedule: Q01DX009 (ip), vehicle: Klucel (hydroxypropylcellulose) (HPC)
# [2] = dose: 200.0 mg/kg/injection, schedule: Q01DX009 (ip), vehicle: Klucel (hydroxypropylcellulose) (HPC)
# [3] = dose: 100.0 mg/kg/injection, schedule: Q01DX009 (ip), vehicle: saline
structure (smiles),measurement,setting,value
CC(C)CCCC(C)C1CCC2C3CCC4=C/C(=N/NC(N)=O)CCC4(C)C3CCC12C (stereo not drawn),T/C,"dose: 50.0 mg/kg/injection, schedule: Q01DX009 (ip), vehicle: Klucel (hydroxypropylcellulose) (HPC)",97 % of control
same,T/C,[1],90 % of control
same,T/C,[2],88 % of control
Cc1ccc(C(=O)OCC2OC(n3cnc4c(=S)nc(N)[nH]c43)C(OC(=O)c3ccc(C)cc3)C2OC(=O)c2ccc(C)cc2)cc1 (stereo not drawn),T/C,"dose: 100.0 mg/kg/injection, schedule: Q01DX001 (ip), vehicle: saline",95 % of control
same,T/C,[3],106 % of control
same,T/C,"dose: 200.0 mg/kg/injection, schedule: Q01DX001 (ip), vehicle: saline",101 % of control
same,T/C,"dose: 200.0 mg/kg/injection, schedule: Q01DX009 (ip), vehicle: saline",112 % of control
same,T/C,"dose: 400.0 mg/kg/injection, schedule: Q01DX001 (ip), vehicle: carboxymethylcellulose (CMC)",111 % of control
same,T/C,"dose: 400.0 mg/kg/injection, schedule: Q01DX001 (ip), vehicle: saline",106 % of control
same,T/C,"dose: 400.0 mg/kg/injection, schedule: Q01DX009 (ip), vehicle: saline",116 % of control
same,T/C,"dose: 600.0 mg/kg/injection, schedule: Q01DX001 (ip), vehicle: carboxymethylcellulose (CMC)",105 % of control
same,T/C,"dose: 800.0 mg/kg/injection, schedule: Q01DX001 (ip), vehicle: carboxymethylcellulose (CMC)",119 % of control
same,T/C,"dose: 800.0 mg/kg/injection, schedule: Q01DX009 (ip), vehicle: saline",172 % of control
same,T/C,"dose: 1000.0 mg/kg/injection, schedule: Q01DX001 (ip), vehicle: carboxymethylcellulose (CMC)",116 % of control
Cc1ccc(S(=O)(=O)OCCN2C(=O)NC(c3ccccc3)(c3ccccc3)C2=O)cc1,T/C,"dose: 3.1 mg/kg/injection, schedule: Q01DX009 (ip), vehicle: saline",104 % of control
same,T/C,"dose: 6.25 mg/kg/injection, schedule: Q01DX009 (ip), vehicle: saline",100 % of control
same,T/C,"dose: 12.5 mg/kg/injection, schedule: Q01DX009 (ip), vehicle: saline",104 % of control
same,T/C,"dose: 25.0 mg/kg/injection, schedule: Q01DX009 (ip), vehicle: saline",98 % of control
same,T/C,"dose: 50.0 mg/kg/injection, schedule: Q01DX009 (ip), vehicle: saline",100 % of control
same,T/C,[3],102 % of control
same,T/C,"dose: 150.0 mg/kg/injection, schedule: Q04DX003 (ip), vehicle: saline with Tween-80",109 % of control
same,T/C,"dose: 225.0 mg/kg/injection, schedule: Q04DX003 (ip), vehicle: saline with Tween-80",109 % of control
same,T/C,"dose: 335.0 mg/kg/injection, schedule: Q04DX003 (ip), vehicle: saline with Tween-80",98 % of control
Cc1ccc(NC(=O)Nc2cc([N+](=O)[O-])ccc2F)cc1C,T/C,"dose: 100.0 mg/kg/injection, schedule: Q04DX003 (ip), vehicle: Klucel (hydroxypropylcellulose) (HPC)",101 % of control
same,T/C,"dose: 200.0 mg/kg/injection, schedule: Q04DX003 (ip), vehicle: Klucel (hydroxypropylcellulose) (HPC)",98 % of control
same,T/C,"dose: 400.0 mg/kg/injection, schedule: Q04DX003 (ip), vehicle: Klucel (hydroxypropylcellulose) (HPC)",101 % of control
COc1ccccc1NC(=O)NCCN1CCCC1,T/C,[1],98 % of control
same,T/C,[2],98 % of control
